According to patent US10787462B2, “Heterocyclic compound” (TAKEDA PHARMACEUTICAL COMPANY LIMITED, priority 2015, dated 2020):

Target: T1, human RIPK1 (1-375) (Homo sapiens, UniProt Q13546)
T1 construct: human RIPK1 (1-375) gene; GST; made in house; host or cells: Sf-9 insect cells
T1 sequence (Q13546 1-375): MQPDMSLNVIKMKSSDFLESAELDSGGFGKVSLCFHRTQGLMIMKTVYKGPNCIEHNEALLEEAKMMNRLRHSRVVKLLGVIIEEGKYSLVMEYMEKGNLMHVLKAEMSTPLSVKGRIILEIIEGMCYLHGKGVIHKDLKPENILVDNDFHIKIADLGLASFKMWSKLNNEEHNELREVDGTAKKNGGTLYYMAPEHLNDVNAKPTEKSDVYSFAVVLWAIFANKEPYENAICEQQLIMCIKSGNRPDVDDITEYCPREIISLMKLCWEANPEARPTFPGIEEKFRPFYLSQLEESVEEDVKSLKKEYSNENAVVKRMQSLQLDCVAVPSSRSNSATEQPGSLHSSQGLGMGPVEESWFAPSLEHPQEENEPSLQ
Experiment: Human RIPK1 enzyme inhibitory effect (ADP-Glo Kinase Assay)
Type: biochemical
Details: well without enzyme = 100% inhibition; for inhibition at 10 µM: read-out: human RIPK1 enzyme inhibitory effect at 10 μM (% inhibition), 10 μM test compound; for human RIPK1 enzyme inhibitory effect at 10 μM (% inhibition): 10 μM test compound
Description: Experimental Example 1: Human RIPK1 Enzyme Inhibitory Effect
Enzyme was prepared by transducing human RIPK1 (1-375) gene to Sf-9 insect cells, and purifying using GST affinity column, and enzyme activity evaluation was performed using the enzyme. The enzyme was used after preservation at −70° C. The RIPK1 enzyme inhibitory activity of the test compound was measured using ADP-Glo™ Kinase Assay (Promega) according the following experiment methods. The test compound diluted with assay buffer (25 mM HEPES (pH 7.5), 10 mM MgCl2, 0.01% Tween-20, 2 mM DTT) was added to 384 well plate by each 2 μL. Next, RIPK1 enzyme solution diluted with the assay buffer was added thereto by each 2 μL, and the mixture was incubated at room temperature for 20 min. After the incubation, 0.6 mM ATP solution was added thereto by each 2 μL to initiate an enzyme reaction. The mixture was incubated at room temperature for 120 min, and ADP-Glo solution prepared according to Promega protocol was added to the 384 well plate by each 3 μL, and the reaction was performed at room temperature for 40 min. Then, Kinase-Detection solution was added to the 384 well plate by each 6 μL, and the reaction was performed at room temperature for 40 min. After the reaction, the luminescence intensity was measured by plate reader Envision (PerkinElmer).

Structure (SMILES) | inhibition at 10 µM | human RIPK1 enzyme inhibitory effect at 10 μM (% inhibition)
CN1C(=O)[C@@H](N2CCc3c(nn(Cc4ccccc4)c3Cl)C2=O)COc2cc(-c3cn[nH]c3)ccc21 [Example 140, (3S)-3-(2-benzyl-3-chloro-7-oxo-2,4,5,7-tetrahydro-6H-pyrazolo[3,4-c]pyridin-6-yl)-5-methyl-8-(1H-pyrazol-4-yl)-2,3-dihydro-1,5-benzoxazepin-4(5H)-one] | 102% | 
O=C1Nc2cc(Cl)ccc2OC[C@@H]1N1CCc2c(nn(Cc3ccccc3)c2Cl)C1=O [Example 144, (3S)-3-(2-benzyl-3-chloro-7-oxo-2,4,5,7-tetrahydro-6H-pyrazolo[3,4-c]pyridin-6-yl)-7-chloro-2,3-dihydro-1,5-benzoxazepin-4(5H)-one] | 100% | 
CN1C(=O)[C@@H](N2CCc3cn(CC4CCC4)nc3C2=O)COc2ccccc21 [Example 31, (3S)-3-(2-(cyclobutylmethyl)-7-oxo-2,4,5,7-tetrahydro-6H-pyrazolo[3,4-c]pyridin-6-yl)-5-methyl-2,3-dihydro-1,5-benzoxazepin-4(5H)-one] | 98% | 
CN1C(=O)C(N2CCc3c(nn(Cc4c(F)cccc4F)c3Cl)C2=O)CCc2c1cnn2C (centres unmarked) [Example 134, 6-(3-chloro-2-(2,6-difluorobenzyl)-7-oxo-2,4,5,7-tetrahydro-6H-pyrazolo[3,4-c]pyridin-6-yl)-1,4-dimethyl-4,6,7,8-tetrahydropyrazolo[4,3-b]azepin-5(1H)-one] |  | 93%
CN1C(=O)[C@@H](N2CCc3cn(CC4CCS(=O)(=O)C4)nc3C2=O)COc2ccccc21 (stereo partly drawn) [Example 163, (3S)-3-(2-((1,1-dioxidotetrahydrothiophen-3-yl)methyl)-7-oxo-2,4,5,7-tetrahydro-6H-pyrazolo[3,4-c]pyridin-6-yl)-5-methyl-2,3-dihydro-1,5-benzoxazepin-4(5H)-one] | 53% | 
Cc1c2c(nn1Cc1cnccn1)C(=O)N([C@H]1COc3ccccc3N(C)C1=O)CC2 [Example 79, (3S)-5-methyl-3-(3-methyl-7-oxo-2-(pyrazin-2-ylmethyl)-2,4,5,7-tetrahydro-6H-pyrazolo[3,4-c]pyridin-6-yl)-2,3-dihydro-1,5-benzoxazepin-4(5H)-one] | 100% | 
CN1C(=O)[C@@H](N2CCc3c(nn(Cc4ccccc4)c3Cl)C2=O)COc2cc(-c3cnn(C)c3)ccc21 [Example 107, (3S)-3-(2-benzyl-3-chloro-7-oxo-2,4,5,7-tetrahydro-6H-pyrazolo[3,4-c]pyridin-6-yl)-5-methyl-8-(1-methyl-1H-pyrazol-4-yl)-2,3-dihydro-1,5-benzoxazepin-4(5H)-one] | 100% | 
CN1C(=O)[C@@H](N2CCc3cn(Cc4ccccc4)nc3C2=O)COc2ccc(C#N)cc21 [Example 14, (3S)-3-(2-benzyl-7-oxo-2,4,5,7-tetrahydro-6H-pyrazolo[3,4-c]pyridin-6-yl)-5-methyl-4-oxo-2,3,4,5-tetrahydro-1,5-benzoxazepine-7-carbonitrile] | 100% | 
CN1C(=O)[C@@H](N2Cc3c(nn(Cc4ccccc4)c3Cl)C2=O)COc2ccccc21 [Example 78, (3S)-3-(2-benzyl-3-chloro-6-oxo-2,6-dihydropyrrolo[3,4-c]pyrazol-5(4H)-yl)-5-methyl-2.3-dihydro-1,5-benzoxazepin-4(5H)-one] | 99% | 
CN1C(=O)C(N2CCc3c(nn(Cc4ccccc4)c3Cl)C2=O)CCc2cn(C)nc21 (centres unmarked) [Example 114, 6-(2-benzyl-3-chloro-7-oxo-2,4,5,7-tetrahydro-6H-pyrazolo[3,4-c]pyridin-6-yl)-2,8-dimethyl-2,5,6,8-tetrahydropyrazolo[3,4-b]azepin-7(4H)-one] |  | 101%
CN1C(=O)C(N2CCc3c(nn(Cc4ccccc4)c3Cl)C2=O)CCc2c1cnn2C (centres unmarked) [Example 126, 6-(2-benzyl-3-chloro-7-oxo-2,4,5,7-tetrahydro-6H-pyrazolo[3,4-c]pyridin-6-yl)-1,4-dimethyl-4,6,7,8-tetrahydropyrazolo[4,3-b]azepin-5(1H)-one] | 98% | 
CN1C(=O)C(N2CCc3c(nn(Cc4ccccc4F)c3Cl)C2=O)CCc2cnccc21 (centres unmarked) [Example 96, 3-(3-chloro-2-(2-fluorobenzyl)-7-oxo-2,4,5,7-tetrahydro-6H-pyrazolo[3,4-c]pyridin-6-yl)-1-methyl-1,3,4,5-tetrahydro-2H-pyrido[4,3-b]azepin-2-one] |  | 96%
CN1C(=O)[C@@H](N2CCc3cn(Cc4ccccc4)nc3C2=O)COc2cc(C#N)ccc21 [Example 13, (3S)-3-(2-benzyl-7-oxo-2,4,5,7-tetrahydro-6H-pyrazolo[3,4-c]pyridin-6-yl)-5-methyl-4-oxo-2,3,4,5-tetrahydro-1,5-benzoxazepine-8-carbonitrile] | 99% | 
CN1C(=O)[C@@H](N2CCc3c(nn(Cc4ccccc4)c3Cl)C2=O)COc2cc(C(=O)NCCOCCOCCOCCOc3ccc4ccccc4c3)ccc21 [Example 148, (3S)-3-(2-benzyl-3-chloro-7-oxo-2,4,5,7-tetrahydro-6H-pyrazolo[3,4-c]pyridin-6-yl)-5-methyl-N-(2-(2-(2-(2-(2-naphthyloxy)ethoxy)ethoxy)ethoxy)ethyl)-4-oxo-2,3,4,5-tetrahydro-1,5-benzoxazepine-8-carboxamide] | 101% | 
CN1C(=O)[C@@H](N2CCc3cn(Cc4ccccc4)nc3C2=O)COc2ccc(C(N)=O)cc21 [Example 72, (3S)-3-(2-benzyl-7-oxo-2,4,5,7-tetrahydro-6H-pyrazolo[3,4-c]pyridin-6-yl)-5-methyl-4-oxo-2,3,4,5-tetrahydro-1,5-benzoxazepine-7-carboxamide] | 99% | 
CN1C(=O)[C@@H](N2CCc3c(nn(Cc4ccccc4)c3Cl)C2=O)COc2cc(C(N)=O)ccc21 [Example 64, (3S)-3-(2-benzyl-3-chloro-7-oxo-2,4,5,7-tetrahydro-6H-pyrazolo[3,4-c]pyridin-6-yl)-5-methyl-4-oxo-2,3,4,5-tetrahydro-1,5-benzoxazepine-8-carboxamide] | 101% | 
CN1C(=O)C(N2CCc3c(nn(Cc4ccccc4)c3Cl)C2=O)CCc2cccnc21 (centres unmarked) [Example 94, 7-(2-benzyl-3-chloro-7-oxo-2,4,5,7-tetrahydro-6H-pyrazolo[3,4-c]pyridin-6-yl)-9-methyl-5,6,7,9-tetrahydro-8H-pyrido[2,3-b]azepin-8-one] |  | 101%
CN1C(=O)C(N2CCc3c(nn(Cc4c(F)cccc4F)c3Cl)C2=O)CCc2c1cnn2C (centres unmarked) [Example 130, 6-(3-chloro-2-(2,6-difluorobenzyl)-7-oxo-2,4,5,7-tetrahydro-6H-pyrazolo[3,4-c]pyridin-6-yl)-1,4-dimethyl-4,6,7,8-tetrahydropyrazolo[4,3-b]azepin-5(1H)-one] | 100% | 
CN1C(=O)C(N2CCc3c(nn(Cc4ccccc4F)c3Cl)C2=O)CCc2c1cnn2C (centres unmarked) [Example 132, 6-(3-chloro-2-(2-fluorobenzyl)-7-oxo-2,4,5,7-tetrahydro-6H-pyrazolo[3,4-c]pyridin-6-yl)-1,4-dimethyl-4,6,7,8-tetrahydropyrazolo[4,3-b]azepin-5(1H)-one] |  | 89%
CN1C(=O)[C@@H](N2CCc3cn(Cc4ccccc4C#N)nc3C2=O)COc2ccccc21 [Example 28, 2-((6-((3S)-5-methyl-4-oxo-2,3,4,5-tetrahydro-1,5-benzoxazepin-3-yl)-7-oxo-4,5,6,7-tetrahydro-2H-pyrazolo[3,4-c]pyridin-2-yl)methyl)benzonitrile] | 99% | 
CNC(=O)c1cc2c(cc1F)N(C)C(=O)[C@@H](N1CCc3c(nn(Cc4ccccc4)c3Cl)C1=O)CO2 [Example 122, (3S)-3-(2-benzyl-3-chloro-7-oxo-2,4,5,7-tetrahydro-6H-pyrazolo[3,4-c]pyridin-6-yl)-7-fluoro-N,5-dimethyl-4-oxo-2,3,4,5-tetrahydro-1,5-benzoxazepine-8-carboxamide] | 101% | 
CN1C(=O)[C@@H](N2CCc3cn(Cc4cccnc4)nc3C2=O)COc2ccccc21 [Example 153, (3S)-5-methyl-3-(7-oxo-2-(pyridin-3-ylmethyl)-2,4,5,7-tetrahydro-6H-pyrazolo[3,4-c]pyridin-6-yl)-2,3-dihydro-1,5-benzoxazepin-4(5H)-one] | 95% | 
CN1C(=O)[C@@H](N2CCc3c(nn(Cc4ccccc4)c3Cl)C2=O)COc2cc(C(=O)O)ccc21 [Example 61, (3S)-3-(2-benzyl-3-chloro-7-oxo-2,4,5,7-tetrahydro-6H-pyrazolo[3,4-c]pyridin-6-yl)-5-methyl-4-oxo-2,3,4,5-tetrahydro-1,5-benzoxazepine-8-carboxylic acid] | 100% | 
